Experimental data taken from patent publication US20010008892A1 (priority 1998, published 2001).
Like-named read-outs stand apart in the source and are kept apart here.

Key:
[1] = test system: HIV; test: Antiviral activity: inhibition of the cytopathic effect of HIV in MT4 cells; format: cell-based
From the text: (§1) The IC50 is the concentration of compound that gives 50% inhibition of the cytopathic effect of HIV. The LC50 is the concentration of compound at which 50% of the cells remain viable.

[2] = Cytotoxicity in MT4 cells (LC50, 50% of the cells remain viable); format: cell-based; conditions: human
From the text: as §1

[3] = molecular target: HIV-1 protease (Human immunodeficiency virus type 1 group M subtype B, UniProt P04585); test: Fluorogenic assay for screening inhibitors of HIV protease; conditions: for inhibition at 0.0005 µM: pH 4.5, read-out: % Inhib. (0.5 nM); for % Inhib. (0.5 nM): compound concentration 0.5 nM, fluorogenic substrate 1.3 μM, pH 4.5, 30° C.
Protocol: A compound of the invention is dissolved in DMSO. A small aliquot is diluted with DMSO to 100 times the final concentration desired for testing. The test is carried out in a 6×50 mm tube in a total volume of 300 microliters. The final concentrations of the components in the reaction buffer are: 125 mM sodium acetate, 1 M sodium chloride, 5 mM dithiothreitol, 0.5 mg/ml bovine serum albumin, 1.3 μM fluorogenic substrate, 2% (v/v) dimethylsulfoxide, pH 4.5. After addition of inhibitor, the reaction mixture is placed in the fluorometer cell holder and incubated at 30° C. for several minutes. The reaction is initiated by the addition of a small aliquot of cold HIV protease. The fluorescence intensity (excitation 340 nm, emmision 490 nM) is recorded as a function of time. The reaction rate is determined for the first six to eight minutes. The observed rate is directly proportional to the moles of substrate cleaved per unit time. The percent inhibition is 100×(1- (rate in presence of inhibitor)/(rate in absence of inhibitor)).
The test compounds were then tested at a concentration of 0.5 nM.

[4] = test system: MT4 cells; test: Cytotoxicity in MT4 cells (LC50, 50% of the cells remain viable); format: cell-based; conditions: MT4 cells; concentration at which 50% of the cells remain viable
From the text: as §1

[5] = Human immunodeficiency virus 1, MT4 cells, 50% inhibition of the cytopathic effect of HIV, read-out: EC50
[6] = MT4 cells, 50% inhibition of the cytopathic effect of HIV, read-out: EC50

Row | SMILES | EC50 [1, 5] [µM] | CC50 [2] [µM] | inhibition at 0.0005 µM [3] [%] | EC50 [1, 6] [µM] | CC50 [4] [µM] | % Inhib. (0.5 nM) [3] [%] | EC50 ([1]; Human immunodeficiency virus 1, MT4) [µM] | CC50 ([2]; MT4 cells, concentration at which 50% of the cells remain viable, read-out: LC50 (the source's name)) [µM]
1 | CC(C)c1nc(CN(C)C(=O)N[C@H](C(=O)N[C@@H](Cc2ccccc2)[C@H](O)CN2CCN(Cc3cncs3)C[C@H]2C(=O)NC(C)(C)C)C(C)C)cs1 [Example 12, N′-[(1S)-1-[[[(1S,2R)-3-[(2S)-2-[[(1,1-Dimethylethyl)amino]carbonyl]-4-(5-thiazolylmethyl)-1-piperazinyl]-2-hydroxy-1-(phenylmethyl)propyl]amino]carbonyl]-2-methylpropyl]-N-methyl-N-[2-(1-methylethyl)-4-thiazolylmethyl]urea] | 0.013 | 70.3 | 61 | – | – | – | – | –
2 | CC(C)c1nc(CN(C)C(=O)N[C@H](C(=O)N[C@@H](Cc2ccccc2)[C@H](O)CN2CCN(Cc3ccccc3)C[C@H]2C(=O)NC(C)(C)C)C(C)C)cs1 [Example 13, N′-[(1S)-1-[[[(1S,2R)-3-[(2S)-2-[[(1,1-Dimethylethyl)amino]carbonyl]-4-(phenylmethyl)-1-piperazinyl]-2-hydroxy-1-(phenylmethyl)propyl]amino]carbonyl]-2-methylpropyl]-N-methyl-N-[2-(1-methylethyl)-4-thiazolylmethyl]urea] | 0.048 | 60.4 | 66 | – | – | – | – | –
3 | COc1cc(CN2CCN(C[C@@H](O)[C@H](Cc3ccccc3)NC(=O)[C@@H](NC(=O)N(C)Cc3csc(C(C)C)n3)C(C)C)[C@H](C(=O)NC(C)(C)C)C2)ccc1O [Example 14, N′-[(1S)-1-[[[(1S,2R)-3-[(2S)-2-[[(1,1-Dimethylethyl)amino]carbonyl]-4-[(4-hydroxy-3-methoxyphenyl)methyl]-1-piperazinyl]-2-hydroxy-1-(phenylmethyl)propyl]amino]carbonyl]-2-methylpropyl]-N-methyl-N-[2-(1-methylethyl)-4-thiazolylmethyl]urea] | 0.041 | 22.7 | 63 | – | – | – | – | –
4 | COc1ccc(CN2CCN(C[C@@H](O)[C@H](Cc3ccccc3)NC(=O)[C@@H](NC(=O)OCc3cnc(C)s3)C(C)C)[C@H](C(=O)NC(C)(C)C)C2)cc1OC [Example 21, 2-Methyl-5-thiazolylmethyl-[(1S)-1-[[[(1S,2R)-3-[(2S)-4-[(3,4-dimethoxylphenyl)methyl]-2-[[(1,1-dimethylethyl)amino]carbonyl]-1-piperazinyl]-2-hydroxy-1-(phenylmethyl)propyl]amino]carbonyl]-2-methylpropyl]carbamate] | – | – | – | 0.011 | 53.1 | 44 | – | –
5 | CC(C)[C@H](NC(=O)N(C)Cc1cncs1)C(=O)N[C@@H](Cc1ccccc1)[C@H](O)CN1CCN(Cc2cncs2)C[C@H]1C(=O)NC(C)(C)C [Example 23, N′-[(1S)-1-[[[(1S,2R)-3-[(2S)-2-[[(1,1-Dimethylethyl)amino]carbonyl]-4-(5-thiazolylmethyl)-1-piperazinyl]-2-hydroxy-1-(phenylmethyl)propyl]amino]carbonyl]-2-methylpropyl]-N-methyl-N-(5-thiazolylmethyl)urea] | 0.259 | > 100 | 51 | – | – | – | – | –
6 | CC(C)[C@H](NC(=O)OCc1cncs1)C(=O)N[C@@H](Cc1ccccc1)[C@H](O)CN1CCN(Cc2cncs2)C[C@H]1C(=O)NC(C)(C)C [Example 25] | – | – | – | 0.057 | > 100 | 45 | – | –
7 | CC(C)CN(C[C@@H](O)[C@H](Cc1ccccc1)NC(=O)[C@@H](NC(=O)N(C)Cc1csc(C(C)C)n1)C(C)C)C(=O)NC(C)(C)C [Example 26] | – | – | 42 | – | – | – | 0.817 | 17.4
8 | CC(C)c1nc(CN(C)C(=O)N[C@H](C(=O)N[C@@H](Cc2ccccc2)[C@H](O)CN(C(C)C)S(=O)(=O)c2ccc(N)cc2)C(C)C)cs1 [Example 29, N′-[(1S)-1-[[[(1S,2R)-3-[[(4-Aminophenyl)sulfonyl](1-methylethyl)amino]-2-hydroxy-1-(phenylmethyl)propyl]amino]carbonyl]-2-methylpropyl]-N-methyl-N-[2-(1-methylethyl)-4-thiazolylmethyl]urea] | 0.175 | 31.2 | 64 | – | – | – | – | –
9 | CC(C)c1ncc(COC(=O)N[C@H](C(=O)N[C@@H](Cc2ccccc2)[C@H](O)CN2C[C@H]3CCCC[C@H]3C[C@H]2C(=O)NC(C)(C)C)C(C)C)s1 [Example 30, 2-(1-Methylethyl)-5-thiazolylmethyl-[(1S)-1-[[[(1S,2R)-3-[(3S)-3-[[(1,1-dimethylethyl)amino]carbonyl](4aα,8aα)octahydro-2-isoquinolinyl]-2-hydroxy-1-(phenylmethyl)propyl]amino]carbonyl]-2-methylpropyl]carbamate] | – | – | – | 0.02 | 17.9 | 55 | – | –
10 | CC(C)c1ncc(CN(C)C(=O)N[C@H](C(=O)N[C@@H](Cc2ccccc2)[C@H](O)CN2C[C@H]3CCCC[C@H]3C[C@H]2C(=O)NC(C)(C)C)C(C)C)s1 [Example 31, N′-[(1S)-1-[[[(1S,2 R)-3-[(3S)-3-[[(1,1-Dimethylethyl)amino]carbonyl](4aα,8aα)-octahydro-2-isoquinolinyl]-2-hydroxy-1-(phenylmethyl)propyl]amino]carbonyl]-2-methylpropyl]-N-methyl-N-[2-(1-methylethyl)-5-thiazolylmethyl]urea] | – | – | – | 0.058 | 17.2 | 48 | – | –
11 | CC(C)c1nc(CN(C)C(=O)N[C@H](C(=O)N[C@@H](Cc2ccccc2)[C@H](O)CN2CC[C@@H](OCc3cncs3)C[C@H]2C(=O)NC(C)(C)C)C(C)C)cs1 [Example 32, N′-[(1S)-1-[[[(1S,2R)-3-[(2S,4R)-2-[[(1,1-Dimethylethyl)amino]carbonyl]-4-(5-thiazolylmethoxy)-1-piperidinyl]-2-hydroxy-1-(phenylmethyl)propyl]amino]carbonyl]-2-methylpropyl]-N-methyl-N-[2-(1-methylethyl)-4-thiazolylmethyl]urea] | 0.015 | 64.1 | 66 | – | – | – | – | –
